Molecules are shown by their SMILES.

We go through 103 compounds from ChEMBL document CHEMBL3507680, “University of Dundee, Gates Library screen for HepG2 cell viability”.

The nature of the data set: Human HepG2 cell viability assay in 384 well format. Format: toxicity, cell-based. Also noted: dose 125 nL, time 70.5 hour; concentration not given beside the values. Particulars: HepG2 cells, read-out: Inhibition.

Turning to `CCOc1cc(CN(C)CCC#N)ccc1OC(F)F`, the cytotoxicity at 70.5 h is -5.38%.

Consider `CCOc1cc(CN(C)CCCC#N)ccc1OC(F)F`, for which the cytotoxicity at 70.5 h was -6.87%.

Regarding `O=C(C(CNCc1ccco1)c1ccccc1)N1CCOCC1` (stereo not drawn), the cytotoxicity at 70.5 h was -4.97%.

Regarding `COc1cc(NCc2c(C)noc2C)c(OC)cc1Cl`, the cytotoxicity at 70.5 h is 10.4%.

Regarding `COC(=O)CNC(=O)C1CCN(S(C)(=O)=O)CC1`, the cytotoxicity at 70.5 h was -9.71%.

For the compound `Cc1nn(CC(O)CN2CCc3ccccc3C2)c(=O)c2ccccc12` (stereo not drawn), the cytotoxicity at 70.5 h is -17.4%.

On to `CCN1CCC(NC(=O)CN2CCCC(NS(C)(=O)=O)C2)CC1` (stereo not drawn), for which the cytotoxicity at 70.5 h is -10.1%.

Turning to `Cc1nnc2n1CCN(c1nn3cc(C(C)(C)C)nc3s1)C2`, the cytotoxicity at 70.5 h is -7.66%.

On to `CNC(=O)NC(=O)CCN1CCCC1c1nc(C2CCCCC2)co1` (stereo not drawn), for which the cytotoxicity at 70.5 h is -7.7%.

For the compound `CCN(C(=O)COc1nc(C(C)(C)C)no1)C1CC1`, the cytotoxicity at 70.5 h is -2.91%.

In the case of `Cc1cnn(CCNCC(O)c2ccc(C(F)(F)F)cc2)c1` (stereo not drawn), the cytotoxicity at 70.5 h is -17.1%.

Regarding `Cc1cn2nc(N3CCn4c(nnc4C(C)C)C3)sc2n1`, the cytotoxicity at 70.5 h worked out at 12%.

For the compound `CC(NC(=O)c1ccc(C#N)cn1)C1(N2CCOCC2)CCCC1` (stereo not drawn), the cytotoxicity at 70.5 h was -7.03%.

Regarding `N#Cc1ccc(F)c(CNC(=O)NC(CO)Cc2ccccc2)c1` (stereo not drawn), the cytotoxicity at 70.5 h is -3.61%.

Turning to `CN(Cc1nnc2n1CCC2)S(=O)(=O)c1ccc(Br)cc1Cl`, the cytotoxicity at 70.5 h was -4.12%.

As for `CN(Cc1nnc2n1CCC2)S(=O)(=O)c1cc(Br)ccc1Br`, the cytotoxicity at 70.5 h is -13.1%.

Turning to `CNC(=O)NC(=O)CCSc1ccccc1Cl`, the cytotoxicity at 70.5 h is -1.01%.

As to `O=C(COCC1CC1)NCC(c1ccccc1)N1CCc2sccc2C1` (stereo not drawn), the cytotoxicity at 70.5 h was -6.84%.

For the compound `CC(NC(=O)Nc1nccs1)c1ccc(S(C)(=O)=O)cc1` (stereo not drawn), the cytotoxicity at 70.5 h was -18.5%.

Regarding `Cc1cccc(N2N=C(C(=O)NC(C)Cc3ccco3)CCC2=O)c1` (stereo not drawn), the cytotoxicity at 70.5 h was -13.7%.

Turning to `CC(Cc1ccco1)NC(=O)C1=NN(c2ccccc2)C(=O)CC1` (stereo not drawn), the cytotoxicity at 70.5 h worked out at 16.9%.

As for `CC(C)N(C)C(=O)c1ccc(Cl)c(NC(=O)CCN2C(=O)CCC2=O)c1`, the cytotoxicity at 70.5 h was -9.99%.

Regarding `CC(C)CC(=O)Nc1cc(C(=O)N(C)C(C)C)ccc1Cl`, the cytotoxicity at 70.5 h was -8.37%.

With `NC(=O)Nc1cccc(C(=O)N(Cc2ccc(F)cc2)C2CC2)c1`, the cytotoxicity at 70.5 h is -14.8%.

With `CC(=O)N1CCC(NC(=O)Cc2csc(C(C)(C)C)n2)CC1`, the cytotoxicity at 70.5 h was -6.85%.

As for `Cc1nnc(CN(C)S(=O)(=O)c2ccc(Br)cc2Cl)n1C`, the cytotoxicity at 70.5 h is -8.93%.

`CCC(=O)NC1CCCN(C(=O)Nc2cc(-c3ccccc3)on2)C1` (stereo not drawn): the cytotoxicity at 70.5 h is -10.8%.

`CC(C)OCCS(=O)(=O)c1nccn1-c1cccc(F)c1`: the cytotoxicity at 70.5 h is -9.1%.

For the compound `Cc1sc(Br)cc1S(=O)(=O)NCc1ccccn1`, the cytotoxicity at 70.5 h is -18.2%.

`COCCCNS(=O)(=O)c1cc(Br)sc1C`: the cytotoxicity at 70.5 h is -6.02%.

As to `CCC1CN(CC(=O)NCCC#N)CCO1` (stereo not drawn), the cytotoxicity at 70.5 h was found to be 2.5%.

As to `CN1CC(NC(=O)Cc2csc(C(C)(C)C)n2)CCC1=O` (stereo not drawn), the cytotoxicity at 70.5 h was determined as 20.1%.

As for `CC(C)(C)c1noc(CCCC(=O)N2CCCC(c3ccn[nH]3)C2)n1` (stereo not drawn), the cytotoxicity at 70.5 h was -2.4%.

As to `CCc1noc(CCCC(=O)N2CCCC(c3ccn[nH]3)C2)n1` (stereo not drawn), the cytotoxicity at 70.5 h is -5.32%.

Take `CC1CCN(C(=O)CN2CCC(c3n[nH]c(C4CC4)n3)CC2)CC1`: the cytotoxicity at 70.5 h is -1.53%.

Take `Cc1noc(C2CCCN(CC(=O)N3CCc4ccccc4C3)C2)n1` (stereo not drawn): the cytotoxicity at 70.5 h was -1.69%.

On to `O=C(CCN1C(=O)CCC1=O)Nc1ccc(Cl)cc1`, for which the cytotoxicity at 70.5 h is -1.6%.

For the compound `O=C(CCN1C(=O)CCC1=O)Nc1ccc(Oc2ccc(Cl)cc2)nc1`, the cytotoxicity at 70.5 h is -10.7%.

Consider `Cc1noc(C2CCN(CC(=O)N3CCNC(=O)C3)CC2)n1`, for which the cytotoxicity at 70.5 h was 17.7%.

Take `CNC(=O)c1cccc(NC(=O)NC(C)c2cc(C)oc2C)c1C` (stereo not drawn): the cytotoxicity at 70.5 h is -8.35%.

With `CCN(C(=O)CN1CCC(c2n[nH]c(C3CC3)n2)CC1)C1CC1`, the cytotoxicity at 70.5 h was -5.09%.

For the compound `C=C(C)CN1CCC(c2n[nH]c(C3CC3)n2)CC1`, the cytotoxicity at 70.5 h is 23.2%.

`N#Cc1cccc(S(=O)(=O)Nc2c(F)cccc2N2CCCC2)c1`: the cytotoxicity at 70.5 h is -5.48%.

Take `CCOc1ccccc1CNC(=O)N(CC)C(C)c1cccnc1` (stereo not drawn): the cytotoxicity at 70.5 h was -6.76%.

Take `CC(C)(C)Oc1ccccc1CNC(=O)C1CCCOC1` (stereo not drawn): the cytotoxicity at 70.5 h was -0.0152%.

For `CCOc1ccc(CNC(=O)N(C)Cc2ncnn2C)cc1C`, the cytotoxicity at 70.5 h is 1.14%.

As for `O=C(c1nc(=O)[nH][nH]1)N1CCCCCC1`, the cytotoxicity at 70.5 h was -1.45%.

`Cc1noc(NS(=O)(=O)c2ccc(Cl)s2)c1C`: the cytotoxicity at 70.5 h is -0.524%.

On to `O=S(=O)(Nc1c(F)cccc1N1CCCC1)c1cncc(F)c1`, for which the cytotoxicity at 70.5 h was -5.83%.

Consider `O=C(c1nc(=O)[nH][nH]1)N1CCC2(CCCCC2)C1`, for which the cytotoxicity at 70.5 h is 20.2%.

As for `CC(=O)N(CCc1ccccc1)CC(=O)Nc1ccccc1C#N`, the cytotoxicity at 70.5 h was -1.29%.

For the compound `COc1ccc(CNc2nnc(CC(C)(C)C)o2)cc1C#N`, the cytotoxicity at 70.5 h was -3.97%.

Take `CCC(C)Oc1cc(C(=O)Nc2nccs2)ccn1` (stereo not drawn): the cytotoxicity at 70.5 h is 0.776%.

Turning to `CC(C)OCCN1CCc2cncnc2C1`, the cytotoxicity at 70.5 h was found to be 4.2%.

As for `CC(=O)N(CCC(=O)NC1(C#N)CCC1)Cc1ccccc1`, the cytotoxicity at 70.5 h is 21.1%.

Take `OC(COCc1ccco1)CSc1nnc2ccccn12` (stereo not drawn): the cytotoxicity at 70.5 h is -6.03%.

Regarding `CCN(C(=O)NCc1ccc(C)cc1OC)C(C)c1cccnc1` (stereo not drawn), the cytotoxicity at 70.5 h was -6.56%.

On to `CCN(C(=O)NCc1ccccc1OC(F)F)C(C)c1cccnc1` (stereo not drawn), for which the cytotoxicity at 70.5 h is 0.0177%.

For the compound `Cc1ccc(-n2c(C)nnc2SCC(O)COCc2ccco2)cc1` (stereo not drawn), the cytotoxicity at 70.5 h was -5.42%.

For `Cn1cc(-c2cccc(CNC(=O)N3CCC[C@@H]3CO)c2)cn1`, the cytotoxicity at 70.5 h is -4.94%.

In the case of `CCOC(C(=O)N1CCn2c(nnc2C(C)C)C1)c1ccccc1` (stereo not drawn), the cytotoxicity at 70.5 h stood at 19.3%.

Consider `COCCN(Cc1cccs1)C(=O)C1CCCN(C(N)=O)C1` (stereo not drawn), for which the cytotoxicity at 70.5 h worked out at 14.1%.

In the case of `Cc1cc(NC(C)C(=O)NCC(F)(F)F)nc(-c2ccncc2)n1` (stereo not drawn), the cytotoxicity at 70.5 h was -16.5%.

As to `Cc1cc(NCC(=O)NCC(F)(F)F)nc(-c2ccncc2)n1`, the cytotoxicity at 70.5 h was -8.33%.

Regarding `CCN(C(=O)CN1CCC(c2cc3ccccc3[nH]2)CC1)C1CC1`, the cytotoxicity at 70.5 h was 4.18%.

With `CCN(CC)c1ccc(NC(=O)NCC2(C(N)=O)CCOCC2)cn1`, the cytotoxicity at 70.5 h is 1.3%.

Consider `NC(=O)C(Nc1cccc(CO)c1)c1ccc(Br)cc1` (stereo not drawn), for which the cytotoxicity at 70.5 h stood at 6.7%.

`COCc1cccc(NC(C(N)=O)c2ccc(Br)cc2)c1` (stereo not drawn): the cytotoxicity at 70.5 h is -9.42%.

For the compound `Cc1cccc(-c2c[nH]c(C3CCCN3C(=O)c3cc(C)n[nH]3)n2)c1` (stereo not drawn), the cytotoxicity at 70.5 h was -9.63%.

Regarding `CCS(=O)(=O)N(C)C1CCN(Cn2ccc(-c3ccc(F)cc3)n2)CC1`, the cytotoxicity at 70.5 h was -13.9%.

Regarding `O=C(CCc1ccc(Br)cc1)NCCc1nnc[nH]1`, the cytotoxicity at 70.5 h was -11.9%.

`CC(C)CCNC(=O)CCc1ccnc2ccccc12`: the cytotoxicity at 70.5 h is -14.4%.

For the compound `CNC(=O)CN(C)c1cncc(OCc2ccccc2)n1`, the cytotoxicity at 70.5 h was determined as 8.53%.

Regarding `CCOc1cncc(N(C)CC(=O)NC)n1`, the cytotoxicity at 70.5 h was -7.85%.

Turning to `NCc1ccc(Oc2cccc(Cl)c2Cl)nc1`, the cytotoxicity at 70.5 h stood at 6.23%.

With `Cn1ccc(CNC(=O)N2CCCC3(C2)OCCO3)c1`, the cytotoxicity at 70.5 h came out at 0.239%.

For the compound `CCC(NC(=O)c1cccc2cc[nH]c12)C(=O)N1CCOCC1` (stereo not drawn), the cytotoxicity at 70.5 h is -11.2%.

As for `CN(C)C(=O)CCS(=O)(=O)Cc1cc(Cl)c2c(c1)OCCO2`, the cytotoxicity at 70.5 h was -6.03%.

In the case of `CCN(CC(=O)N(C)C)S(=O)(=O)c1cnc2c(c1)c(C)nn2C`, the cytotoxicity at 70.5 h is -17.2%.

With `CCN(CC(=O)NC)S(=O)(=O)c1cnc2c(c1)c(C)nn2C`, the cytotoxicity at 70.5 h was -14.3%.

`CCCN(CC(=O)OC)S(=O)(=O)c1cnc2c(c1)c(C)nn2C`: the cytotoxicity at 70.5 h was -7.82%.

As to `O=C(NCC1CCCOC1)c1ccc(-c2cccs2)[nH]c1=O` (stereo not drawn), the cytotoxicity at 70.5 h came to 4.28%.

For the compound `Cn1cc(C(=O)O)c(-c2ccc(F)cc2F)n1`, the cytotoxicity at 70.5 h was -4.16%.

Take `CC(=O)N1CCN(C(=O)CCc2cc(Br)cs2)CC1`: the cytotoxicity at 70.5 h was -3.42%.

For the compound `CC(C#N)(NC(=O)Cn1cc(I)cn1)C1CC1` (stereo not drawn), the cytotoxicity at 70.5 h worked out at 6.23%.

Consider `CC(=O)NCc1ccc(-n2ccnc2C)nc1`, for which the cytotoxicity at 70.5 h was -14.4%.

As to `CCN(Cc1csc(C)n1)c1cccc(CO)c1`, the cytotoxicity at 70.5 h is -3.7%.

Take `CCc1cc(C(=O)N2CCc3c(ncn3CCc3ccccc3)C2)[nH]n1`: the cytotoxicity at 70.5 h came out at 5.19%.

In the case of `CCc1c(C)nc2ccccc2c1N1CCC(O)CC1`, the cytotoxicity at 70.5 h was -3.88%.

With `CN1CCN(C(=O)CCc2cc(Br)cs2)CC1`, the cytotoxicity at 70.5 h was -6.76%.

`CN(Cc1ccc(F)cc1F)CC(C)(CO)CO`: the cytotoxicity at 70.5 h is -5.77%.

Take `Cc1cnc(NC2CCN(CC(=O)Nc3ccccc3)CC2)nc1C`: the cytotoxicity at 70.5 h came out at 2.9%.

Regarding `CN(C)c1nccc(N(C)C2CCCCC2)n1`, the cytotoxicity at 70.5 h was -4.22%.

For `Cc1noc(CNc2ccccc2N2CCCCC2)n1`, the cytotoxicity at 70.5 h is -2.98%.

`Cc1cc(NC(=O)C(C)N2CCN(c3ccccc3F)CC2)no1` (stereo not drawn): the cytotoxicity at 70.5 h came out at 4.65%.

`CCc1ccc(Cn2nccc2NC(=O)C2CCS(=O)(=O)C2)cc1` (stereo not drawn): the cytotoxicity at 70.5 h was -3.51%.

In the case of `CCCC(=O)NS(=O)(=O)c1ccc(C#N)c(C(F)(F)F)c1`, the cytotoxicity at 70.5 h came to 1.39%.

`CC(C)(C)C(=O)NS(=O)(=O)c1ccc(C#N)c(C(F)(F)F)c1`: the cytotoxicity at 70.5 h turned out to be 7.04%.

Take `CC(C(=O)NC(N)=O)N1CCN(c2ccc(C#N)cc2F)CC1` (stereo not drawn): the cytotoxicity at 70.5 h was -19.1%.

As for `Cc1nc2ccccc2n1CCNCc1cccc(O)c1`, the cytotoxicity at 70.5 h was -4.75%.

As to `COCCCNC(=O)CN(C)C(=O)CN(C)c1ccc(C#N)cn1`, the cytotoxicity at 70.5 h was -7.44%.

Take `CC1(C)Cc2ccc(C(=O)NC3CCS(=O)(=O)C3)c(O)c2O1` (stereo not drawn): the cytotoxicity at 70.5 h was found to be 12.1%.

`CC/C=C(/C)C(=O)NS(=O)(=O)c1ccc(C#N)cc1C(F)(F)F`: the cytotoxicity at 70.5 h was -7.29%.
